Experimental data published in ChEMBL document CHEMBL4342418, “1,2,3-Triazole-containing hybrids as potential anticancer agents: Current developments, action mechanisms and structure-activity relationships” (Eur J Med Chem, 2019).
Values after ≈ are worked out from the molar mass of the structure shown. Values belong to the compound of their own block, whether it stands above or below them.

Experiments:
MDA-MB-231 [1] = assay: Antiproliferative activity against human MDA-MB-231 cells by SRB assay; type: functional
[2] = Antiproliferative activity against human MiaPaCa cells by SRB assay; type: functional; conditions: MIA PaCa-2
IMR-32 = assay: Antiproliferative activity against human IMR32 cells by SRB assay; type: functional
DU-145 [3] = assay: Antiproliferative activity against human DU145 cells assessed as reduction in cell viability after 48 hrs by MTT assay; type: functional, cell-based; conditions: DU-145, 48 h
SK-OV-3 [4] = assay: Antiproliferative activity against human SKOV3 cells assessed as reduction in cell viability after 48 hrs by MTT assay; type: functional, cell-based; conditions: SK-OV-3, 48 h
HeLa [5] = assay: Antiproliferative activity against human HeLa cells assessed as reduction in cell viability after 48 hrs by MTT assay; type: functional, cell-based
MDA-MB-231 [6] = assay: Antiproliferative activity against human MDA-MB-231 cells assessed as reduction in cell viability after 24 hrs by MTT assay; type: functional, cell-based; conditions: MDA-MB-231, 24 h
MCF7 [7] = assay: Antiproliferative activity against human MCF7 cells assessed as reduction in cell viability after 24 hrs by MTT assay; type: functional, cell-based; conditions: MCF7, 24 h
MCF7 [8] = assay: Antiproliferative activity against human MCF7 cells assessed as reduction in cell viability after 72 hrs by MTT assay; type: functional, cell-based; conditions: MCF7, 72 h
MCF7 [9] = assay: Potency index, ratio of Sorafenib IC50 to test compound IC50 for antiproliferative activity against human MCF7 cells; type: functional
HT-29 [10] = assay: Potency index, ratio of Sorafenib IC50 to test compound IC50 for antiproliferative activity against human HT-29 cells; type: functional
HT-29 [11] = assay: Antiproliferative activity against human HT-29 cells assessed as reduction in cell viability after 72 hrs by MTT assay; type: functional, cell-based; conditions: HT-29, 72 h
[12] = Antiproliferative activity against human GBM2 cells assessed as reduction in cell viability after 72 hrs by MTT assay; type: functional, cell-based; conditions: GBM2, 72 h
[13] = Antiproliferative activity against human GBM95 cells assessed as reduction in cell viability after 72 hrs by MTT assay; type: functional, cell-based
HT-29 [14] = assay: Antiproliferative activity against human HT-29 cells assessed as reduction in cell viability after 48 hrs by MTT assay; type: functional, cell-based; conditions: HT-29, 48 h
PC-3 = assay: cells; type: functional, cell-based; conditions: Homo sapiens, PC-3, 48 h
Description: Antiproliferative activity against human PC3 cells assessed as reduction in cell viability after 48 hrs by MTT assay

HGC-27 = assay: Antiproliferative activity against human HGC27 cells assessed as reduction in cell viability after 48 hrs by MTT assay; type: functional, cell-based; conditions: HGC-27, 48 h
A549 [15] = assay: Antiproliferative activity against human A549 cells assessed as reduction in cell viability after 48 hrs by SRB assay; type: functional, cell-based; conditions: A549, 48 h
HCT-116 = assay: Antiproliferative activity against human HCT116 cells assessed as reduction in cell viability after 48 hrs by SRB assay; type: functional, cell-based; conditions: HCT-116, 48 h
MCF7 [16] = assay: Antiproliferative activity against human MCF7 cells assessed as reduction in cell viability after 48 hrs by SRB assay; type: functional, cell-based; conditions: MCF7, 48 h
HT-29 [17] = assay: Antiproliferative activity against human HT-29 cells assessed as reduction in cell viability after 48 hrs by SRB assay; type: functional, cell-based; conditions: HT-29, 48 h
MCF7 [18] = assay: cells; type: functional, cell-based; conditions: Homo sapiens
Description: Antiproliferative activity against human MCF7 cells by MTT assay

MGC-803 = assay: Antiproliferative activity against human MGC803 cells by MTT assay; type: functional, cell-based
ECa-109 cell line = assay: Antiproliferative activity against human EC109 cells by MTT assay; type: functional, cell-based
[19] = Antiproliferative activity against human HCG27 cells by MTT assay; type: functional, cell-based
MCF7 [20] = assay: Antiproliferative activity against human MCF7 cells assessed as reduction in cell viability after 48 hrs by MTT assay; type: functional, cell-based; conditions: MCF7, 48 h
HepG2 [21] = assay: Antiproliferative activity against human HepG2 cells by MTT assay; type: functional, cell-based
A549 [22] = assay: Antiproliferative activity against human A549 cells assessed as reduction in cell viability after 48 hrs by MTT assay; type: functional, cell-based; conditions: A549, 48 h
T47D = assay: Antiproliferative activity against human T47D cells assessed as reduction in cell viability after 72 hrs by MTT assay; type: functional, cell-based
DU-145 [23] = assay: Antiproliferative activity against human DU145 cells by SRB assay; type: functional, cell-based
HeLa [24] = assay: Antiproliferative activity against human HeLa cells by SRB assay; type: functional, cell-based
HepG2 [25] = assay: Antiproliferative activity against human HepG2 cells by SRB assay; type: functional, cell-based
A549 [26] = assay: Antiproliferative activity against human A549 cells by SRB assay; type: functional, cell-based
SK-OV-3 [27] = assay: Antiproliferative activity against human SKOV3 cells by SRB assay; type: functional, cell-based
KB = assay: Antiproliferative activity against human KB cells by MTT assay; type: functional, cell-based
HL-60 = assay: Antiproliferative activity against human HL60 cells assessed as reduction in cell viability after 48 hrs by MTT assay; type: functional, cell-based; conditions: HL-60, 48 h
SW480 = assay: Antiproliferative activity against human SW480 cells assessed as reduction in cell viability after 48 hrs by MTT assay; type: functional, cell-based; conditions: SW480, 48 h
[28] = Antiproliferative activity against human SMCC7721 cells assessed as reduction in cell viability after 48 hrs by MTT assay; type: functional, cell-based
MCF7 [29] = assay: Antiproliferative activity against human MCF7 cells by SRB assay; type: functional, cell-based
MCF7-DOX = assay: Antiproliferative activity against human MCF7/Dox cells by SRB assay; type: functional, cell-based

SMILES: N#Cc1ccccc1Cn1cc(CNc2ccc3oc(-c4ccccc4)cc(=O)c3c2)nn1
GI50 (MDA-MB-231 [1]): 0.11 to 1 µM | GI50 [2]: 0.11 to 1 µM | GI50 (IMR-32): 0.11 to 1 µM

SMILES: Cc1ncc([N+](=O)[O-])n1Cc1cn(CCCCCN2C(=O)C(=O)c3cc(Cl)ccc32)nn1
IC50 (MDA-MB-231 [6]): 16.1 µM | IC50 (MCF7 [7]): 20.8 µM

SMILES: CNC(=O)c1cc(Oc2ccc(-n3cc(-c4cccs4)nn3)cc2)ccn1
IC50 (MCF7 [8]): 0.2 to 0.84 µM | Ratio IC50 (MCF7 [9]): 6.2 - 131.2 | Ratio IC50 (HT-29 [10]): 6.2 - 131.2 | IC50 (HT-29 [11]): 0.2 to 0.84 µM

SMILES: Cn1nnc2c(C(N)=O)ncn2c1=O [TEMOZOLOMIDE]
IC50 [12]: 1130 µM | IC50 [13]: 625 µM

SMILES: CCc1ccc(-n2cc(CNC(=O)C(=O)c3c[nH]c4ccccc34)nn2)cc1
IC50 (DU-145 [3]): 8.17 µM | IC50 (SK-OV-3 [4]): > 100 µM | IC50 (HeLa [5]): > 100 µM

SMILES: COc1ccc2c(c1)[nH]c1c(C)nccc12 [HARMINE]
IC50 (MCF7 [8]): 3.52 to 24.4 µM | IC50 (HT-29 [14]): 3.52 to 24.4 µM | IC50 (PC-3): 3.52 to 24.4 µM | IC50 (HGC-27): 3.52 to 24.4 µM

SMILES: Cc1ccc(Cn2cc(CSc3nc(Nc4ccccc4)c4ccccc4n3)nn2)cc1
IC50 (MCF7 [18]): 0.57 to 7.13 µM | IC50 (MGC-803): 0.57 to 7.13 µM | IC50 (ECa-109 cell line): 0.57 to 7.13 µM | IC50 [19]: 0.57 to 7.13 µM

Second part, led by results:

IC50 (DU-145 [3]): 8.69 µM | IC50 (SK-OV-3 [4]): > 100 µM | IC50 (HeLa [5]): > 100 µM
SMILES: O=C(NCc1cn(-c2ccc(F)cc2)nn1)C(=O)c1c[nH]c2ccccc12

IC50 (MCF7 [8]): 3.67 to 26.5 µM | IC50 (HT-29 [14]): 3.67 to 26.5 µM | IC50 (PC-3): 3.67 to 26.5 µM
SMILES: COc1ccc(-c2nc(Cn3cc(CN4C(=O)c5cccc6cccc(c56)C4=O)nn3)cc3c2[nH]c2ccccc23)cc1OC
IC50 (HGC-27): 3.67 to 26.5 µM

IC50 (MCF7 [8]): 0.2 to 0.84 µM | IC50 (HT-29 [11]): 0.2 to 0.84 µM
SMILES: CNC(=O)c1cc(Oc2ccc(-n3cc(-c4ccccc4F)nn3)cc2)ccn1
Ratio IC50 (MCF7 [9]): 6.2 - 131.2 | Ratio IC50 (HT-29 [10]): 6.2 - 131.2

IC50 (A549 [15]): 1.76 to 9.46 µM | IC50 (HCT-116): 1.76 to 9.46 µM | IC50 (MCF7 [16]): 1.76 to 9.46 µM | IC50 (HT-29 [17]): 1.76 to 9.46 µM
SMILES: Cc1ccc(-c2nn(-c3ccccc3)cc2/C=C/C(=O)OCc2cn(-c3ccc([N+](=O)[O-])cc3)nn2)cc1

IC50 (MCF7 [20]): 0.31 to 32.8 µM | IC50 (HepG2 [21]): 11.8 to 15.7 µM | IC50 (A549 [22]): 0.31 to 32.8 µM | IC50 (DU-145 [3]): 9.8 µM | GI50 (MCF7 [8]): 7.5 µg/mL (≈ 12.7 µM) | GI50 (T47D): 7.9 µg/mL (≈ 13.4 µM) | IC50 (DU-145 [23]): 6.94 to 50 µM | IC50 (HeLa [24]): 6.94 to 50 µM | IC50 (HepG2 [25]): 6.94 to 50 µM | IC50 (A549 [26]): 6.94 to 50 µM | IC50 (SK-OV-3 [27]): 6.94 to 50 µM | IC50 (KB): 11.8 to 15.7 µM | IC50 (HL-60): 8.12 to 32.8 µM | IC50 (SW480): 0.31 to 32.8 µM | IC50 (MCF7 [29]): 6.94 to 50 µM | IC50 (MCF7-DOX): 6.94 to 50 µM
SMILES: COc1cc([C@@H]2c3cc4c(cc3[C@@H](O[C@@H]3O[C@@H]5CO[C@@H](C)O[C@H]5[C@H](O)[C@H]3O)[C@H]3COC(=O)[C@H]23)OCO4)cc(OC)c1O [ETOPOSIDE]
IC50 [28]: 0.31 to 32.8 µM
